The values below come from ChEMBL document CHEMBL4152353, “Synthesis of DNA interactive C3-trans-cinnamide linked β-carboline conjugates as potential cytotoxic and DNA topoisomerase I inhibitors” (Bioorg Med Chem, 2018).

The test system of data set [1] is MCF7. In words: Induction of apoptosis in human MCF7 cells assessed as late apoptotic cells at 1 uM after 48 hrs by Annexin-V-FITC/propidium iodide staining based flow cytometry (reference value: 0.06%). It counts as functional.
Data set [2] deals with MCF7. In words: Induction of apoptosis in human MCF7 cells assessed as late apoptotic cells at 0.5 uM after 48 hrs by Annexin-V-FITC/propidium iodide staining based flow cytometry (reference value: 0.06%). It counts as functional.
In data set [3] the test system is Calf thymus DNA. In words: Binding affinity to calf thymus DNA at 50 uM by UV-Vis absorption spectrophotometric method. It counts as nucleic-acid assay. The conditions noted are these: Bos taurus.
Data set [4] deals with A549. In words: Cytotoxicity against human A549 cells after 48 hrs by MTT assay. It counts as functional, cell-based. The conditions noted are these: A549, 48 h.
Data set [5] concerns MCF7. In words: Induction of apoptosis in human MCF7 cells assessed as viable cells at 0.5 uM after 48 hrs by Annexin-V-FITC/propidium iodide staining based flow cytometry (reference value: 96.18%). It counts as functional. The conditions noted are these: MCF7, 48 h, read-out: Activity.
Data set [6] concerns MCF7. In words: Cell cycle arrest in human MCF7 cells assessed as accumulation at subG1 phase at 0.5 uM after 48 hrs by propidium iodide staining based flow cytometry (reference value: 3.04%). It counts as functional.
The subject of data set [7] is Calf thymus DNA. In words: Binding affinity to calf thymus DNA assessed as hypochromic shift at 50 uM by UV-Vis absorption spectrophotometric method. It counts as nucleic-acid assay. The conditions noted are these: Bos taurus.
Data set [8] has as its system MCF7. In words: Induction of apoptosis in human MCF7 cells assessed as viable cells at 1 uM after 48 hrs by Annexin-V-FITC/propidium iodide staining based flow cytometry (reference value: 96.18%). It counts as functional. The conditions noted are these: MCF7, 48 h, read-out: Activity.
In data set [9] the test system is Calf thymus DNA. In words: Binding affinity to calf thymus DNA assessed as DNA winding at 1:1 to 1:2 ratio of DNA to compound by circular dichroism analysis. It counts as nucleic-acid assay. The conditions noted are these: Bos taurus.
In data set [10] the test system is NIH3T3. In words: Cytotoxicity against mouse NIH/3T3 cells assessed as cell death at 1 uM after 24 hrs by propidium iodide/Hoechst 33342 staining based fluorescence microscopic analysis. The conditions noted are these: nih3t3, 24 h.
Data set [11] has as its system B16. In words: Cytotoxicity against mouse B16 cells after 48 hrs by MTT assay. The conditions noted are these: B16, 48 h. It counts as functional, cell-based.
Data set [12] has as its system Calf thymus DNA. In words: Binding affinity to calf thymus DNA assessed as increase in viscosity at 15 uM by viscometric method. The settings on record: Bos taurus. It counts as nucleic-acid assay.
Data set [13] concerns MCF7. In words: Cell cycle arrest in human MCF7 cells assessed as accumulation at S-phase at 1 uM after 48 hrs by propidium iodide staining based flow cytometry (reference value: 15.64%). It counts as functional.
Data set [14] relates to MCF7. In words: Cell cycle arrest in human MCF7 cells assessed as accumulation at G2/M-phase at 0.5 uM after 48 hrs by propidium iodide staining based flow cytometry (reference value: 33.65%). It counts as functional.
For data set [15], the system named is MCF7. In words: Induction of apoptosis in human MCF7 cells assessed as early apoptotic cells at 0.5 uM after 48 hrs by Annexin-V-FITC/propidium iodide staining based flow cytometry (reference value: 0.09%). It counts as functional.
For data set [16], the system named is MCF7. In words: Cytotoxicity against human MCF7 cells after 48 hrs by MTT assay. It counts as functional, cell-based. The settings on record: MCF7, 48 h.
The subject of data set [17] is MCF7. In words: Cytotoxicity against human MCF7 cells assessed as cell death at 1 uM after 24 hrs by propidium iodide/Hoechst 33342 staining based fluorescence microscopic analysis. It counts as functional.
The subject of data set [18] is Calf thymus DNA. In words: Binding affinity to calf thymus DNA assessed as fluorescence quenching at 10 uM by spectrofluorimetric method. It counts as nucleic-acid assay. The conditions noted are these: Bos taurus.
Data set [19] has as its system MCF7. In words: Induction of apoptosis in human MCF7 cells assessed as necrotic cells at 1 uM after 48 hrs by Annexin-V-FITC/propidium iodide staining based flow cytometry (reference value: 3.67%). It counts as functional.
In data set [20] the target is T1, Topoisomerase I (Bos taurus, UniProt Q2HPH0).
T1 sequence (Q2HPH0 whole entry): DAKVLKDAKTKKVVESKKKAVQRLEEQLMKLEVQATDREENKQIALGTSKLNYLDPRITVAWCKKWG
In words: Inhibition of calf thymus topoisomerase 1-mediated relaxation of supercoiled pBR322 DNA measured after 30 mins by agarose gel electrophoresis method.

Data set [21] has as its system MCF7. In words: Induction of apoptosis in human MCF7 cells assessed as increase in number of wrinkled cells at 1 uM after 48 hrs by Hoechst 33342 staining based confocal microscopic analysis. It counts as functional, cell-based.
Data set [22] has as its system MCF7. In words: Induction of apoptosis in human MCF7 cells assessed as DNA fragmentation at 1 uM after 48 hrs by Hoechst 33342 staining based confocal microscopic analysis. It counts as functional, cell-based.
Data set [23] has as its system NIH3T3. In words: Cytotoxicity against mouse NIH/3T3 cells after 48 hrs by MTT assay. The settings on record: NIH3T3, 48 h. It counts as cell-based.
For data set [24], the system named is Calf thymus DNA. In words: Binding affinity to calf thymus DNA assessed as maximum absorption peak at 50 uM by UV-Vis absorption spectrophotometric method. It counts as nucleic-acid assay. The settings on record: Bos taurus.
In data set [25] the test system is MCF7. In words: Induction of apoptosis in human MCF7 cells assessed as necrotic cells at 0.5 uM after 48 hrs by Annexin-V-FITC/propidium iodide staining based flow cytometry (reference value: 3.67%). It counts as functional.
Data set [26] deals with MCF7. In words: Cell cycle arrest in human MCF7 cells assessed as accumulation at G1 phase at 0.5 uM after 48 hrs by propidium iodide staining based flow cytometry (reference value: 45.98%). It counts as functional.
For data set [27], the system named is MCF7. In words: Cell cycle arrest in human MCF7 cells assessed as accumulation at G2/M-phase at 1 uM after 48 hrs by propidium iodide staining based flow cytometry (reference value: 33.65%). It counts as functional.
Data set [28] concerns MCF7. In words: Cell cycle arrest in human MCF7 cells assessed as accumulation at G1 phase at 1 uM after 48 hrs by propidium iodide staining based flow cytometry (reference value: 45.98%). It counts as functional.
The test system of data set [29] is MCF7. In words: Induction of apoptosis in human MCF7 cells assessed as early apoptotic cells at 1 uM after 48 hrs by Annexin-V-FITC/propidium iodide staining based flow cytometry (reference value: 0.09%). It counts as functional.
Data set [30] concerns MCF7. In words: Cell cycle arrest in human MCF7 cells assessed as accumulation at S-phase at 0.5 uM after 48 hrs by propidium iodide staining based flow cytometry (reference value: 15.64%). It counts as functional.
In data set [31] the test system is MCF7. In words: Cell cycle arrest in human MCF7 cells assessed as accumulation at subG1 phase at 1 uM after 48 hrs by propidium iodide staining based flow cytometry (reference value: 3.04%). It counts as functional.
Data set [32] concerns HeLa. In words: Cytotoxicity against human HeLa cells after 48 hrs by MTT assay. It counts as functional, cell-based.

Calls of active or inactive are those of the source. The rule behind the calls is not given here.

Regarding `COc1ccc(-c2nc(CNC(=O)/C=C/c3ccc(Cl)cc3)cc3c2[nH]c2ccccc23)cc1`, the Activity was 2.43% in data set [1]; 0.81% in data set [2]; 5.4% in [6]; 6 nm in data set [7]; “Non-Toxic” in [10]; 16.72% in [13]. In addition, the Activity is 33.1% in data set [14]; 6.65% in data set [15]; 6.04% in data set [19]; 287 to 369 nm in data set [24]; 1.29% in [25]; 42.32% in data set [26]. Besides, the Activity stood at 37.42% in data set [27]; 42.38% in data set [28]; 6.69% in data set [29]; 17.6% in data set [30]; 2.97% in [31]. The molecule further showed a K in data set [3] of 3 ×10⁵ /M. Besides, the IC50 in [4] is 18.9 nM; in data set [11], 16.6 nM; in data set [16], 14.1 nM; in data set [20] it was 14 nM; in data set [23] it was 38.3 nM; in data set [32], 21.6 nM. For the same molecule, the viability at 0.5 µM in [5] was determined as 91.2%. The viability at 1 µM in data set [8] is 84.8%. Further, the result in data set [9], in data set [12], in data set [17], in data set [18], in data set [21] and in data set [22] was Active.

Turning to `COc1ccc(-c2nc(CNC(=O)/C=C/c3cccc(O)c3)cc3c2[nH]c2ccccc23)cc1`, the Activity is reported as 3.69% in data set [1]; 2.5% in [2]; 4.61% in data set [6]; “Non-Toxic” in data set [10]; 16.29% in [13]; 32.46% in data set [14]. In addition, the Activity is 9.75% in data set [15]; 9.55% in [19]; 287 to 369 nm in data set [24]; 6.45% in data set [25]; 46.11% in data set [26]; 39.25% in data set [27]. Also, the Activity in data set [28] came to 40.12%; in data set [29], 9.46%; in data set [30] it was 16.81%; in data set [31], 4.32%. Moreover, the K in data set [3] was 1 ×10³ /M. For the same molecule, the concentration for half-maximal inhibition (IC50) in data set [4] came to 18.9 nM; in data set [11] it was 16.3 nM; in data set [16], 13.8 nM; in [20] it was 14 nM; in [23] it was 37.2 nM; in data set [32] it was 22.3 nM. Also, the viability at 0.5 µM in data set [5] is 81.3%. For the same molecule, the outcome in [7] was inactive. In addition, in data set [8], the viability at 1 µM was 77.3%. Further, the outcome in data set [9], in data set [12], in [17], in data set [18], in [21] and in data set [22] was Active.

As for `CC[n+]1c(-c2ccccc2)c2cc(N)ccc2c2ccc(N)cc21`, in data set [12], the outcome was Active.
